A word on the IC50: it is the midpoint of a concentration-inhibition curve. A lower IC50 goes with inhibition by little substance.

The structures appear in SMILES notation. Structures can show the parent of a compound that is named as a salt.

For this experiment, the target named is T1, dN-SARM1 protein (Homo sapiens, UniProt Q6SZW1).
T1 construct: the N-terminal mitochondrial localization signal peptide of SARM1 was removed
T1 sequence (Q6SZW1 28-724): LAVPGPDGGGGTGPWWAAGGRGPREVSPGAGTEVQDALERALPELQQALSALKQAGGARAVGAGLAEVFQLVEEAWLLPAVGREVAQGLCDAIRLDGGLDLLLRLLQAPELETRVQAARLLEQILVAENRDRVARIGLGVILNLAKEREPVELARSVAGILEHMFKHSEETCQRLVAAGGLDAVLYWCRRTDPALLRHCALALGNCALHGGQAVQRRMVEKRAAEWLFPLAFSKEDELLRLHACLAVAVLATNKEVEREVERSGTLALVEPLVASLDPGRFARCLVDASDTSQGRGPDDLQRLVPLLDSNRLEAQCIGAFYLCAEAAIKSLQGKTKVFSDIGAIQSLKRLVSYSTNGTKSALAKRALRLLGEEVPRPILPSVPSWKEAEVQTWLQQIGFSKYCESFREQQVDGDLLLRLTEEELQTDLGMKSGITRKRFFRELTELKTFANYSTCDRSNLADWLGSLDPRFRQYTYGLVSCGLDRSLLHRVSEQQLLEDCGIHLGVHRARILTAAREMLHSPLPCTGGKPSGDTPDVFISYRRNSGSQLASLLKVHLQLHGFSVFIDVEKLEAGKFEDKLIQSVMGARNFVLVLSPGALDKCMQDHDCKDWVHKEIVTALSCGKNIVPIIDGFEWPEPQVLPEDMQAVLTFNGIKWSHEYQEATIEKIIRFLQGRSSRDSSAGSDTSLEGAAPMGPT
Kind of experiment: In vitro biochemical assay for inhibiting SARM1 enzymatic activity (IC50), PC6 fluorescence method. Particulars: 50 μM NAD, 50 μM PC6, 50 μM NMN activator. Here is the method:
200 μM compound was first added to a solution of 0.05 μg/ml dN-SARM1 in 50 mM Tris-HCl (pH 7.5). Half of the mixture was added to an equal volume of a solution of 0.05 μg/ml dN-SARM1 in 50 mM Tris-HCl (pH 7.5) and mixed. The drug was diluted 6 times in this manner, with the final concentrations being 200, 100, 50, 25, 12.5, 6.25, 3.125 μM, or 200, 50, 12.5, 3.125, 0.78, 0.195, 0.049 μM, respectively. The protein without inhibitors added, being used as control group, was incubated at room temperature for 10 minutes.
50 μM NAD, 50 μM PC6 as substrate and 50 μM NMN as activator were added to the dN-SARM1 protein incubated with the inhibitor and reacted for 30 minutes at room temperature. The concentration of each component was the final concentration in the reaction system.
During the reaction, PC6 fluorescence spectrum dynamics were detected by a microplate reader, wherein the excitation wavelength and emission wavelength for detection were 390 nm and 520 nm, respectively. Finally, the reaction rate was used to express the activity of the protein, and the half inhibitory concentration was calculated. The higher the reaction rate, the stronger the protein activity, and the lower the inhibitory efficiency of the compound.
The dose curve of compounds inhibiting SARM1 enzymatic activity was determined using the above method.
With `COc1ccc2ncc(-c3cccc(S(N)(=O)=O)c3)n2c1` [Compound 5], the IC50 was 1 to 10 µM.
On to `COc1cccc(-c2cnc3ccc(N(C)C(=O)OC(C)(C)C)cn23)n1` [Compound 16], for which the IC50 fell in the range of 1 to 10 µM.
`CN(C(=O)OC(C)(C)C)c1ccc2ncc(-c3ccccn3)n2c1` [Compound 18]: the IC50 fell in the range of 1 to 10 µM.
As to `COC(=O)c1ccn2c(-c3ccccc3)cnc2c1` [Compound 23], the IC50 is 1 to 10 µM.
Then `CC(=O)N(C)c1ccc2ncc(-c3ccccc3)n2c1` [Compound 42], with less than 1 µM; and `CC(=O)N(C)c1ccc2ncc(-c3cccs3)n2c1` [Compound 43], with 1 to 10 µM; and `CNc1ccc2ncc(-c3cccc(S(=O)(=O)N(C)C(=O)OC(C)(C)C)c3)n2c1` [Compound 59, tert-butyl methyl ((3-(6-(methylamino)imidazo[1,2-a]pyridin-3-yl)phenyl)sulfonyl)carbamate], with 1 to 10 µM.
Regarding `CNc1ccc2ncc(-c3cccc(S(=O)(=O)NC)c3)n2c1` [Compound 60, N-methyl-3-(6-(methylamino)imidazo[1,2-a]pyridin-3-yl)benzenesulfonamide], the IC50 lay within 1 to 10 µM.
Take `CN(C(=O)OC(C)(C)C)c1ccc2ncc(-c3cccc(S(N)(=O)=O)c3)n2c1` [Compound 61, tert-butyl methyl (3-(3-sulfamoylphenyl)imidazo[1,2-a]pyridin-6-yl)carbamate]: the half-inhibitory concentration (IC50) was 1 to 10 µM.
Under `CNc1ccc2ncc(-c3cccc(S(N)(=O)=O)c3)n2c1` [Compound 62, 3-(6-(methylamino)imidazo[1,2-a]pyridin-3-yl) benzenesulfonamide] stands 1 to 10 µM; under `CNc1ccc2ncc(-c3cccc(C(N)=O)c3)n2c1` [Compound 64], 1 to 10 µM; under `CNc1ccc2ncc(-c3ccccc3C)n2c1` [Compound 67], 1 to 10 µM.
Take `CNc1ccc2ncc(-c3ccc(OC)cc3)n2c1` [Compound 72]: the IC50 was in the range of 1 to 10 µM.
For the molecule `CNc1ccc2ncc(-c3cccnc3)n2c1` [Compound 73], the IC50 is 1 to 10 µM.
Under `CNc1ccc2ncc(-c3ccncc3)n2c1` [Compound 74] stands 1 to 10 µM; under `CNc1ccc2ncc(-c3ccccn3)n2c1` [Compound 76], 1 to 10 µM; under `CC(C)(C)OC(=O)N1CCOCCN(C(=O)OC(C)(C)C)S(=O)(=O)c2cccc(c2)-c2cnc3ccc1cn23` [Compound 80, di-tert-butyl(E)-7-oxa-3-thio-4,10-diaza-1(3,6)-imidazol[1,2-a]pyridin-2(1,3)-phenylcyclodecane-4,10-dicarboxylate 3,3-dioxide], 1 to 10 µM.
Under `O=S1(=O)NCCOCCNc2ccc3ncc(n3c2)-c2cccc1c2` [Compound 81, (E)-7-oxa-3-thia-4,10-diaza-1(3,6)-imidazo[1,2-a]pyridine-2(1,3)-benzocyclodecane 3,3-dioxide] stands 1 to 10 µM; under `COc1ccc2ncc(Nc3ccccc3)n2c1` [Compound 82, 6-methoxy-N-phenylimidazo[1,2-a]pyridin-3-amine], 1 to 10 µM.
Under `CN(C(=O)OC(C)(C)C)c1ccc2ncc(C3=CCCCC3)n2c1` [Compound 83] stands 1 to 10 µM; under `CNc1ccc2ncc(C3CCCCC3)n2c1` [Compound 85, 3-cyclohexyl-N-methylimidazo[1,2-a]pyridin-6-amine], 1 to 10 µM; under `Brc1cnc2ccc(NC3CCOC3)cn12` (centres unmarked) [Compound 86, 3-bromo-N-(tetrahydrofuran-3-yl)imidazo[1,2-a]pyridin-6-amine], less than 1 µM.
`NS(=O)(=O)c1cccc(-c2cnc3ccc(N[C@@H]4CCCNC4)cn23)c1` [Compound 89, (R)-3-(6-(piperidin-3-ylamino)imidazo[1,2-a]pyridin-3-yl)benzenesulfonamide] yielded an IC50 of less than 1 µM.
Then `CN(c1ccc2ncc(-c3ccccc3)n2c1)S(C)(=O)=O` [Compound 91, N-methyl-N-(3-phenylimidazo[1,2-a]pyridin-6-yl)methanesulfonamide], with 1 to 10 µM; and `CC(=O)N(C)c1ccc2ncc(-c3ccccc3Cl)n2c1` [Compound 92, N-(3-(2-chlorophenyl)imidazo[1,2-a]pyridin-6-yl)-N-methylacetamide], with 1 to 10 µM; and `Cc1ncsc1-c1ccc(CNC(=O)[C@@H]2C[C@@H](O)CN2C(=O)[C@@H](NC(=O)COCCOCC(=O)N(C)c2ccc3ncc(-c4ccccc4Cl)n3c2)C(C)(C)C)cc1` [Compound 117, (2S,4R)-1-((S)-12-(tert-butyl)-2-(3-(2-chlorophenyl)imidazo[1,2-a]pyridin-6-yl)-3,10-dioxo-5,8-dioxa-2,11-diazahexadecane-13-acyl)-4-hydroxy-N-(4-(4-methylthiazol-5-yl)benzyl)pyrrolidin-2-carboxamide], with 1 to 10 µM.
Then `CNc1ccc2ncc(-c3cccc(NC(=O)COCCOCCOCC(=O)N[C@H](C(=O)N4C[C@H](O)C[C@H]4C(=O)NCc4ccc(-c5scnc5C)cc4)C(C)(C)C)c3)n2c1` [Compound 120, (2S,4R)-1-((S)-2-(tert-butyl)-14-((3-(6-(methylamino)imidazo[1,2-a]pyridin-3-yl)phenyl)amino)-4,14-dioxo-6,9,12-trioxa-3-azatetradecanoyl)-4-hydroxy-N-(4-(4-methylthiazol-5-yl)benzyl)pyrrolidin-2-carboxamide hydrochloride], with less than 1 µM; and `CNc1ccc2ncc(-c3cccc4c3C(=O)NC4)n2c1` [Compound 165], with less than 1 µM.
In turn, `CNc1ccc2ncc(-c3ccnc4[nH]ccc34)n2c1` [Compound 166] registered an IC50 of less than 1 µM.
Then `CNc1ccc2ncc(-c3cccc(NC(=O)c4ccccc4)n3)n2c1` [Compound 172], with less than 1 µM; and `CN(C(=O)OC(C)(C)C)c1ccc2ncc(-c3cccc4nccn34)n2c1` [Compound 173], with 1 to 10 µM; and `CNC(=O)c1ccccc1-c1cnc2ccc(N(C)C(=O)OC(C)(C)C)cn12` [Compound 174], with less than 1 µM.
Under `CN(C(=O)OC(C)(C)C)c1ccc2ncc(-c3ccccc3C(=O)NC3CCOCC3)n2c1` [Compound 175] stands less than 1 µM; under `CNC(=O)c1ccccc1-c1cnc2ccc(NC)cn12` [Compound 176], 1 to 10 µM; under `CNc1ccc2ncc(-c3ccccc3C(=O)NC3CCOCC3)n2c1` [Compound 177], 1 to 10 µM.
Under `CN(C(=O)OC(C)(C)C)c1ccc2ncc(-c3cccc(-n4cccn4)c3)n2c1` [Compound 178] stands less than 1 µM; under `CNc1ccc2ncc(-c3cccc(-n4cccn4)c3)n2c1` [Compound 179], less than 1 µM; under `CNc1ccc2ncc(-c3cccc(N)n3)n2c1` [Compound 180], 1 to 10 µM.
In the case of `CN(C(=O)OC(C)(C)C)c1ccc2ncc(-c3ccnc(NC(=O)c4ccccc4)c3)n2c1` [Compound 182], the IC50 fell in the range of 1 to 10 µM.
Then `CN(C(=O)OC(C)(C)C)c1ccc2ncc(-c3ccnc4[nH]ccc34)n2c1` [Compound 184], with 1 to 10 µM.
Under `CNc1ccc2ncc(-c3ccnnc3)n2c1` [Compound 186] stands 1 to 10 µM.
In turn, `CNc1ccc2ncc(-c3ccccc3C(C)NC(=O)C3CCOCC3)n2c1` (centres unmarked) [Compound 191] yielded an IC50 of 1 to 10 µM.
`CNc1ccc2ncc(-c3ccc4cc[nH]c4n3)n2c1` [Compound 192] yielded an IC50 of 1 to 10 µM.
Then `CNc1ccc2ncc(-c3ccc(NC(=O)C4CCOCC4)cn3)n2c1` [Compound 193], with 1 to 10 µM.
As for `CN(C(=O)OC(C)(C)C)c1ccc2ncc(-c3cnc(N)nc3)n2c1` [Compound 194], the IC50 was in the range of 1 to 10 µM.
Under `CNc1ccc2ncc(-c3cnc(N)nc3)n2c1` [Compound 195] stands 1 to 10 µM; under `CN(C(=O)OC(C)(C)C)c1ccc2ncc(-c3ccc4[nH]ccc4n3)n2c1` [Compound 196], 1 to 10 µM; under `CNc1ccc2ncc(-c3ccc4[nH]ccc4n3)n2c1` [Compound 197], 1 to 10 µM.
Under `CN(C(=O)OC(C)(C)C)c1ccc2ncc(-c3ccc4[nH]ccc4c3)n2c1` [Compound 199] stands 1 to 10 µM; under `CNc1ccc2ncc(-c3cccc(-n4cccc4)c3)n2c1` [Compound 200], 1 to 10 µM.

Values taken from US20240368168A1, “SARM1 ENZYME ACTIVITY INHIBITOR AND APPLICATION THEREOF” (ARTIVILA BIOPHARMA, priority 2021, published 2024).
